The results in this text go back to patent US12109204B2, “Methods for treating muscular dystrophies” (The Regents of the University of California, priority 2018, dated 2024).

Each structure is given as a SMILES string. Entries after “also recorded” stand apart in the source; their conditions may differ.

What all share (format): cell-based, murine
Assay [1] relates to hSSPN-EGFP myotubes (human sarcospan promoter reporter in C2C12). The assay is described as follows: hSSPN-EGFP reporter myotube assay (high-content imaging). The note with it: for hSSPN-EGFP RFU, Plate 1 / hSSPN-EGFP RFU, Plate 2: retest of screen hits at 5.5 μM; for hSSPN-EGFP RFU, Plate 1: Plate 1, n=24 per plate; for hSSPN-EGFP RFU, Plate 2: Plate 2, n=24 per plate; for fluorescence intensity over vehicle, primary screen hit call: primary screen of 3,200 molecules, 5.5 μM, 48 hours, n=1, hit cutoff 1.4-fold. The procedure: (§1) C2C12 immortalized murine myoblasts cultured in growth media consisting of DMEM (Gibco) with 20% Fetal Bovine Serum (Sigma-Aldrich) at 37° C. with 5% CO2 were transfected with the hSSPN-EGFP or hSSPN-Luciferase linearized plasmids using Lipofectamine 3000 Transfection Reagent (Thermo Fisher Scientific). Transfected cells were selected using 800 μg/ml of G418 (Sigma-Aldrich) for 4 weeks to generate stable cell lines expressing reporter protein under control of the human SSPN promoter.
hSSPN-EGFP myoblasts were seeded at 500 cells per well in 50 μl of growth media in 384-well black, clear bottom microplates (Greiner) using a Multidrop 384 (Thermo Fisher Scientific) and incubated for 3 days. Upon reaching confluency, the growth media was replaced with 50 μl of differentiation media consisting of DMEM with 2% horse serum (Sigma-Aldrich) using an EL406 combination washer dispenser (Biotek). At day 2 of differentiation, the media on the cells was aspirated, left with a residual volume of 10 μl, and replaced with 30 μl of fresh differentiation media. 0.5 μl of small molecule in DMSO or DMSO alone (for vehicle and positive control wells) was added to each well using a Biomek Fx (Beckman). To ensure proper mixing of the DMSO, 50 μl of additional differentiation media was added to all wells except the positive control treated wells, which instead received 50 μl of media containing insulin transferrin selenium (ITS, Gibco) to reach a final concentration of 1% ITS. The final concentration of drug in each treated well was 5.5 μM in 0.55% DMSO and 0.55% DMSO for vehicle and positive control treated wells. After 48 hours of incubation, the media was replaced with Fluorobrite DMEM (Gibco) and each plate was imaged using ImageXpress Micro Confocal High Content Imaging System (Molecular Devices). The fluorescent intensity of imaged cells was determined using MetaXpress Analysis software (Molecular Devices). Analysis setting were as follows: top hat (size: 12, filter shape: circle), adaptive threshold (source: top hat, minimum width: 10, maximum width: 800, intensity above local background: 500), filter mask (filter type: minimum area filter, minimum value: 500). […]

Assay [2] shares this test system. The assay is described as above. The note with it: for hSSPN-EGFP reporter activity, counterscreen: doses between 3.9 nm to 1 μM, 48 hours (FIG. 10a); for hit call in an earlier assay: no details given. In general terms: The purpose of a counterscreen is to sort out artefacts and off-target activity.
For assay [3], the system named is hSSPN-Luciferase reporter cells (human sarcospan promoter reporter in C2C12). The assay is described as follows: hSSPN-Luciferase reporter assay (Bright-Glo). The note with it: doses between 3.9 nm to 1 μM, 48 hours (FIG. 10b). On the procedure:
as §1
hSSPN-Luciferase myoblasts were cultured as described above. After 48 hours of treatment, plates were allowed to equilibrate to room temperature before the media was aspirated using an EL406 combination washer dispenser at room temperature. Bright-Glo luciferase assay system reagent (Promega) and differentiation media were added to cells at a 1:2 dilution using a Multidrop 384. After a 3-minute incubation at room temperature, luminescence signal was quantified using an Envision plate reader (PerkinElmer). The relative luminescence units were analyzed to determine fold change of treated over vehicle treated cells.
Cells were treated for 48 hours beginning at day 2 of differentiation with DMSO (vehicle control, ATCC), felodipine (Sigma), nilvadipine (Sigma), alloxazine (Sigma), GW5074 (Sigma), methylthioadenosine (Santa Cruz Biotechnology), or ezutromid (Cayman Chemicals) diluted in cell type specific differentiation media at doses listed in the figures. For gene expression studies, each treatment was performed in duplicate. For protein studies, each treatment was performed with single or double replicates.
Background: A reporter such as luciferase makes a cellular process visible.

The next assay has as its system SSPN, sarcospan. The assay is described as follows: SSPN gene expression by qPCR in C2C12 wild-type myotubes. Conditions: 48h, normalized to GAPDH, n=2 (FIG. 11b), felodipine 10 μM. On the procedure: (§2) RNA from myotubes treated for 48 hours was extracted from cells using Trizol-based (Thermo Fisher Scientific) phase separation. RNA concentrations were determined using a NanoDrop 1000 (Thermo Fisher Scientific) and 750 ng of RNA in a 20 μl reaction was reverse transcribed using iScript cDNA synthesis (Bio-Rad) with the following cycling conditions: 25° C. for 5 minutes, 42° C. for 30 minutes, 85° C. for 5 minutes. For quantitative PCR, SsoFast EvaGreen Supermix (Bio-Rad), 400 nM of each optimized forward and reverse primer (for primer descriptions see Table 1), and cDNA corresponding to 37.5 ng RNA were used to amplify cDNA measured by Applied Biosystems 7300 (Thermo Fisher Scientific) with the following reaction conditions: 55° C. for 2 minutes, 95° C. for 2 minutes, 40 cycles of 95° C. for 10 seconds and 62° C. for 30 seconds, and dissociation stage. Each sample was run in triplicate. Data was analyzed using the ddCT method and normalized to reference gene, GAPDH or β-actin, with vehicle-treated samples serving as the calibrator (relative expression of vehicle control=1). C2C12 cells (American Type Culture Collection) were grown at 37° C. with 5% CO2 in growth media containing DMEM (Gibco) with 20% FBS (Sigma-Aldrich). Upon reaching confluency, the media was replaced with differentiation media containing DMEM with 2% horse serum (Sigma-Aldrich). Conditionally immortalized H2K mdx myoblast cells with a nonsense mutation in exon 23 of dystrophin were a gift from Terrance Partridge, Ph.D. (Children's National Medical Center, Washington, D.C.). Cells were allowed to proliferate on 0.01% gelatin (Sigma-Aldrich) coated plates at 33° C. with 5% CO2 with growth media containing DMEM, 20% HI-FBS (Invitrogen), 2% L-glutamine (Sigma-Aldrich), 2% chicken embryo extract (Accurate Chemical), 1% penicillin-streptomycin (Sigma-Aldrich), and 20U/ml of fresh interferon gamma (Gibco). For differentiation, H2K mdx myoblasts were seeded on plates coated with 0.1 mg/ml matrigel (Corning) diluted in DMEM and grown in proliferation conditions. […]

Another assay deals with UTRN, utrophin. The assay is described as follows: UTRN gene expression by qPCR in C2C12 wild-type myotubes. Conditions: C2C12 myotubes, 48h, normalized to GAPDH, n=2 (FIG. 11a); felodipine 10 μM. The procedure: as §2, with “(Sigma-Aldrich).” for “(Sigma-Aldrich). Conditionally immortalized H2K mdx myoblast cells with a nonsense mutation in exon 23 of dystrophin were a gift from Terrance Partridge, Ph.D. (Children's National Medical Center, Washington, D.C.). Cells were allowed to proliferate on 0.01% gelatin (Sigma-Aldrich) coated plates at 33° C. with 5% CO2 with growth media containing DMEM, 20% HI-FBS (Invitrogen), 2% L-glutamine (Sigma-Aldrich), 2% chicken embryo extract (Accurate Chemical), 1% penicillin-streptomycin (Sigma-Aldrich), and 20U/ml of fresh interferon gamma (Gibco). For differentiation, H2K mdx myoblasts were seeded on plates coated with 0.1 mg/ml matrigel (Corning) diluted in DMEM and grown in proliferation conditions.”
On the technique in general: Real-time PCR tracks product formation cycle by cycle.

As for `COC(=O)N=N/C=C1\C=[N+]([O-])c2ccccc2N1O` [Carbodox, methyl N-[(E)-(1-hydroxy-4-oxidoquinoxalin-4-ium-2-ylidene)methyl]iminocarbamate], in assay [1], the “hSSPN-EGFP RFU, Plate 1” value is 1.1 RFU and the “hSSPN-EGFP RFU, Plate 2” value came out at 1.1 RFU.
On to `C[C@]12CC[C@H]3[C@@H](CCC4=CC(=O)CC[C@@H]43)[C@@H]1CC[C@@H]2O` [Nandrolone, (8R,9S,10R,13 S,14S,17S)-17-hydroxy-13-methyl-2,6,7,8,9,10,11,12,14,15,16,17-dodecahydro-1H-cyclopenta[a]phenanthren-3-one], for which, in assay [1], the “fluorescence intensity over vehicle, primary screen hit call” value (“fluorescence intensity over vehicle” below) is given as “hits”; the “hSSPN-EGFP RFU, Plate 1” value turned out to be 1.2 RFU; the “hSSPN-EGFP RFU, Plate 2” value worked out at 1.1 RFU.
Regarding `CSC[C@H]1O[C@@H](n2cnc3c(N)ncnc32)[C@H](O)[C@@H]1O` [methylthioadenosine, (2R,3R,4S,5S)-2-(6-aminopurin-9-yl)-5-(methylsulfanylmethyl)oxolane-3,4-diol], in assay [2], the “hSSPN-EGFP reporter activity, counterscreen” value (shortened to “hSSPN-EGFP reporter activity”) is “increased activity” and the “hit call in an earlier assay” value is listed as “among the hits”. The “hSSPN-Luciferase reporter activity, counterscreen” value (“hSSPN-Luciferase reporter activity” below) in assay [3] is “increased activity”.
Turning to `CCOC(=O)C1=C(C)NC(C)=C(C(=O)OCC)C1c1ccccc1/C=C/C(=O)OC(C)(C)C` [Lacidipine, diethyl 2,6-dimethyl-4-[2-[(E)-3-[(2-methylpropan-2-yl)oxy]-3-oxoprop-1-enyl]phenyl]-1,4-dihydropyridine-3,5-dicarboxylate], in assay [1], the “fluorescence intensity over vehicle” value is “hits”; the “hSSPN-EGFP RFU, Plate 1” value was 1.3 RFU; the “hSSPN-EGFP RFU, Plate 2” value is recorded as 1.2 RFU.
As to `COC(=O)C1=C(C#N)NC(C)=C(C(=O)OC(C)C)C1c1cccc([N+](=O)[O-])c1` (centres unmarked) [Nilvadipine, 3-O-methyl 5-O-propan-2-yl 2-cyano-6-methyl-4-(3-nitrophenyl)-1,4-dihydropyridine-3,5-dicarboxylate], in assay [1], the “fluorescence intensity over vehicle” value is given as “hits”; the “hSSPN-EGFP RFU, Plate 1” value is 1.6 RFU; the “hSSPN-EGFP RFU, Plate 2” value is listed as 1.5 RFU. Moreover, the “hSSPN-EGFP reporter activity” value in assay [2] is listed as “increased activity”. In assay [3], the “hSSPN-Luciferase reporter activity” value is on record as “increased activity”.
`CC(=O)OC1CN2CCC1CC2` (centres unmarked) [Aceclidine, 1-Azabicyclo[2.2.2]oct-3-yl acetate]: in assay [1], the “hSSPN-EGFP RFU, Plate 1” value is 1.1 RFU and the “hSSPN-EGFP RFU, Plate 2” value was 1.1 RFU.
For the compound `O=c1[nH]c(=O)c2nc3ccccc3nc2[nH]1` [Alloxazine, 1H-benzo[g]pteridine-2,4-dione], in assay [1], the “fluorescence intensity over vehicle” value was “hits”; the “hSSPN-EGFP RFU, Plate 1” value is listed as 1.0 RFU; the “hSSPN-EGFP RFU, Plate 2” value came out at 1.1 RFU. For the same compound, in assay [2], the “hSSPN-EGFP reporter activity” value is on record as “increased activity”. Further, the “hSSPN-Luciferase reporter activity” value in assay [3] is recorded as “increased activity”.
As to `Nc1nc(=O)c2ncn(COCCO)c2[nH]1` [Acyclovir, 2-amino-9-(2-hydroxyethoxymethyl)-3H-purin-6-one], in assay [1], the “hSSPN-EGFP RFU, Plate 1” value was determined as 0.9 RFU and the “hSSPN-EGFP RFU, Plate 2” value turned out to be 1.0 RFU.
For the compound `COC(=O)C1=C(C)NC(C)=C(C(=O)OC(C)C)C1c1cccc2nonc12` (centres unmarked) [Isradipine, 3-O-methyl 5-O-propan-2-yl 4-(2,1,3-benzoxadiazol-4-yl)-2,6-dimethyl-1,4-dihydropyridine-3,5-dicarboxylate], in assay [1], the “fluorescence intensity over vehicle” value was “hits”; the “hSSPN-EGFP RFU, Plate 1” value was 1.5 RFU; the “hSSPN-EGFP RFU, Plate 2” value was determined as 1.4 RFU.
Turning to `CC(C)NCC(O)c1ccc(O)c(O)c1` (centres unmarked) [Isoproterenol, 4-[1-hydroxy-2-(propan-2-ylamino)ethyl]benzene-1,2-diol], in assay [1], the “fluorescence intensity over vehicle” value is “hits”; the “hSSPN-EGFP RFU, Plate 1” value is recorded as 1.1 RFU; the “hSSPN-EGFP RFU, Plate 2” value turned out to be 1.1 RFU.
Regarding `CC[n+]1c(C=CC=C2N(C)c3ccccc3C2(C)C)sc2ccccc21.[I-]` [AC-93253, 2-[3-(1,3-Dihydro-1,3,3-trimethyl-2H-indol-2-ylidene)-1-propenyl]-3-ethyl-benzothiazolium iodide], the “hit call in an earlier assay” value in assay [2] was “among the hits”.
As for `CCCCN1CCCC1CNC(=O)c1cc(C#N)c2ccccc2c1OC` (centres unmarked) [Nafadotride, N-[(1-butylpyrrolidin-2-yl)methyl]-4-cyano-1-methoxynaphthalene-2-carboxamide], in assay [1], the “hSSPN-EGFP RFU, Plate 1” value amounted to 1.1 RFU and the “hSSPN-EGFP RFU, Plate 2” value came out at 1.0 RFU.
As to `COC(=O)C1=C(C)NC(C)=C(C(=O)OC)C1c1ccccc1[N+](=O)[O-]` [Nifedipine, dimethyl 2,6-dimethyl-4-(2-nitrophenyl)-1,4-dihydropyridine-3,5-dicarboxylate], in assay [1], the “fluorescence intensity over vehicle” value was “hits”; the “hSSPN-EGFP RFU, Plate 1” value turned out to be 1.3 RFU; the “hSSPN-EGFP RFU, Plate 2” value came out at 1.0 RFU.
With `CCS(=O)(=O)c1ccc2oc(-c3ccc4ccccc4c3)nc2c1` [ezutromid], the “SSPN gene expression relative to vehicle” value in the assay on SSPN, sarcospan is given as “did not significantly increase SSPN gene expression; also recorded: did not significantly increase sarcospan levels”. The “UTRN gene expression relative to vehicle” value in the assay with UTRN, utrophin was “did not significantly increase UTRN levels; also recorded: did not increase utrophin gene expression”.
As for `O=C1Nc2ccc(I)cc2/C1=C/c1cc(Br)c(O)c(Br)c1` [GW5074, (3Z)-3-[(3,5-dibromo-4-hydroxyphenyl)methylidene]-5-iodo-1H-indol-2-one], in assay [1], the “fluorescence intensity over vehicle” value is recorded as “hits”; the “hSSPN-EGFP RFU, Plate 1” value was 1.2 RFU; the “hSSPN-EGFP RFU, Plate 2” value stood at 1.2 RFU. The “hSSPN-EGFP reporter activity” value in assay [2] is “increased activity”. The “hSSPN-Luciferase reporter activity” value in assay [3] is reported as “increased activity”.
